The nature of series [1]: Thermal stability of the product of each step (Table 1). The format is physicochemical. Particulars: product of step (e) of the preferred method; cell text split over r17-r19: No decomposition observed. An excerpt:
Table 1 provides the reaction enthalpies, the purities (determined by HPLC and expressed as molar percentages) and the stabilities of the products of each step for this preferred method.

For series [2] the following is noted: as described by Bodineau et al. in Hypertension 2008 51, 1318-1325; cited from earlier work.
Series [3] can be described thus: Stability of solid forms (neat, hydrates) under ambient conditions. The conditions noted are these: ambient conditions: 15-25° C., atmospheric pressure, relative humidity above 50%; hydrate mixtures evolve to the trihydrate within a few days. The format is physicochemical. Here is the method: Any mixture of hydrates of compound I will evolve within a few days towards the trihydrate form in ambient conditions. Ambient conditions as used herein refer to a temperature between 15° C. and 25° C., at atmospheric pressure, and a relative humidity rate above 50%.

With `N[C@@H](CCS(=O)(=O)O)CSSC[C@@H](N)CCS(=O)(=O)O` [Compound I, (3S,3S′) 4,4′-disulfanediylbis(3-aminobutane 1-sulfonic acid)], the melting point (commonly the temperature of the solid-liquid transition) turned out to be 78 °C. For the same compound, the “Stability: decomposition” value in series [1] is recorded as “No”. Besides, the Anti-hypertensor efficacy result in series [2] is given as “efficient anti-hypertensor agent”.

In the case of `N[C@@H](CCS(=O)(=O)O)CSSC[C@@H](N)CCS(=O)(=O)O.O.O.O` [compound I, (3H2O)], in series [3], the “Relative stability of solid form” value is on record as “most stable form”.

Source of the values: patent publication US9340497B2, “Method for the preparation of (3S,3S′) 4,4′-disulfanediylbis (3-aminobutane 1-sulfonic acid)” (QUANTUM GENOMICS, priority 2010, dated 2016).
